Experimental findings from patent US20100144636A1, “PEPTIDES DERIVED FROM RAS-P21 AND USES THEREFOR” (THE RESEARCH FOUNDATION OF STATE UNIVERSITY OF NEW YORK, priority 2008, published 2010) are described below.

Where no end group is shown, it is not given here.

Series [1] deals with BMRPA1 normal rat pancreatic acinar cells. As to the kind of experiment: Growth and viability of untransformed BMRPA1 cells incubated with peptide. The series is classed as cell-based. On the procedure: (§1) MIAPaCa-2 cells were grown in Dulbecco's modified Eagle's medium (GIBCO) supplemented with heat inactivated 10% fetal calf serum, 20 mM glutamine, penicillin (100 units/ml), streptomycin (100/ug/ml) and plated on a six-well plate with density no more then 20,000 cells/well in 3 ml culture medium. HT1080 cells were cultured in RPMI 1640 medium supplemented with 10% heat-inactivated fetal calf serum, 100 units/ml of penicillin and 100 ug/ml streptomycin and plated on six-well plates with a density of no more then 6,000 cells/well in 3 ml culture medium. BMRPA1 normal rat pancreatic acinar cells were grown as described previously.
(§2) All cells (approximately 2×10^4) were incubated in their respective media (see above) for 24 h after which the media were replaced with the same media containing one of the peptides at a concentration of 100 μg/ml. Over the subsequent time course of each experiment, the medium was changed every 48 h, but always contained peptide at the same concentration. Cells were observed daily for 1-3 weeks for changes in morphology and growth characteristics. After selected time periods, cells were stained with trypan blue or assayed using the MTT assay as described previously to assess cell counts. These experiments were performed at least three times for each cell line.

In series [2] the test system is oncogenic (Val 12-containing) ras-p21-induced oocyte maturation. Description: Oncogenic ras-p21-induced oocyte maturation (GVBD). Type of series: cell-based, Xenopus laevis. Conditions: injected/co-injected with oncogenic ras-p21 into oocytes. The source says: (§3) The Applicants have synthesized both of the inventive peptides, referred to as PNC-7 and PNC-2, and assayed them for their abilities to block oncogenic ras-p21 induction of maturation of Xenopus laevis oocytes. Injection of oncogenic, but not wild-type ras-p21, into these oocytes induce oocyte maturation, i.e., completion of the second meiotic division, as measured by germinal vesicle membrane breakdown (GVBD). Insulin also induces oocyte maturation in a manner that requires activation of endogenous wild-type ras-p21.

Series [3] has as its system insulin-induced oocyte maturation. As to the kind of experiment: Insulin-induced oocyte maturation (activated wild-type ras-p21). Type of series: cell-based, Xenopus laevis. Particulars: oocytes induced to mature with insulin.
Text: as §3

Series [4] concerns the target oncogenic ras-p21 with raf (Homo sapiens, UniProt P04049). Description: Interaction of oncogenic ras-p21 with raf. Type of series: binding.
The test system of series [5] is HT-1080 fibrosarcoma cells. Description: Growth (cell counts) of HT-1080 cells incubated with peptide. Type of series: cell-based, human. Conditions: peptide 100 μg/ml, medium changed every 48 h; three-week observation period (FIG. 1). The method, then: as §1, §2
For series [6], the system named is oncogenic ras-p21-JNK interaction. As to the kind of experiment: Oncogenic ras-p21-JNK interaction. Type of series: binding. Particulars: dose-response curve coincides with that for inhibition of oocyte maturation.
Series [7] has as its system caspase (CPP32) in MIA-PaCa-2 cells. As to the kind of experiment: Clontech caspase (CPP32) activity assay for apoptosis. The series is classed as cell-based, human. Particulars: relative to control background; TNF-alpha 20 ng/ml for 45 min as positive control (FIG. 4A). The method, then:
To detect if peptide-induced cell death occurred by apoptosis or necrosis, the Clontech caspase (CPP32) activity assay for elevated caspase was performed as described previously. In addition, to detect if significant cell necrosis occurred, the CytoTox96 assay for LDH released into the cell culture medium was used as also described previously. As a positive control for LDH release, the CytoTox96 assay was performed on the media of MIA-PaCa-2 cells that were incubated with 100 ug/ml PNC-28 peptide for 24 h.

Turning to “TIEDSYRQVVIDKKWKMRRNQFVKVQRG [PNC-7-MRP]”, in series [1], the “cell growth or viability of untransformed BMRPA1 cells” value (“cell growth or viability” below) is recorded as “no effect either on cell growth or viability”.
For “TIEDSYRQVVID (PNC-7- ras-p21 residue 35-47)”, the “inhibition of oncogenic ras-p21-induced oocyte maturation” value in series [2] was “block”. Moreover, the “inhibition of insulin-induced oocyte maturation” value in series [3] is recorded as “considerably less inhibitory activity”. Moreover, the “blocking of the interaction of oncogenic ras-p21 with raf” value in series [4] is “blocks the interaction of oncogenic ras-p21 with raf”.
With “MPFSTGKRIMLGEKKWKMRRNQFVKVQRG [PNC-29, reference compound]”, in series [1], the “cell growth or viability” value is given as “no effect either on cell growth or viability”.
On to “YREQIKRVKDSDDVPKKWKMRRNQFVKVQRG [PNC-2-MRP]”, for which, in series [1], the “cell growth or viability” value is recorded as “no effect either on cell growth or viability”.
Regarding “NAVFRLLHEHKGKKAKKWKMRRNQFVKVQRG (CD45-MRP- Control peptide from the CD-45 antigen linked to penetratin) [CD-45-MRP]”, in series [5], the “tumor cell growth / cell count of HT-1080 cells” value was “no effect on tumor cell growth”.
As for “YREQIKRVKDSDDVP (PNC-2 -ras-p21 residue 96-110)”, the “inhibition of oncogenic ras-p21-induced oocyte maturation” value in series [2] was “block”. In series [3], the “inhibition of insulin-induced oocyte maturation” value is given as “considerably less inhibitory activity”. The “blocking of the oncogenic ras-p21-JNK interaction” value in series [6] is reported as “blocks the oncogenic ras-p21-JNK interaction”.
As to TNF-alpha, in series [7], the “caspase expression in MIA-PaCa-2 cells” value was “markedly elevated”.
